Values quoted from earlier work, collected in article PMC2929769 (Toxicon : official journal of the International Society on …, 2010).

Test system: RTA
Conditions: read-out: RTA IC50

For `Nc1nc(=O)c(CCCc2ccc(C(=O)O)cc2)c(O)[nH]1` [PBA, 4-[3-(2-amino-1,4-dihydro-6-hydroxy-4-oxo-5-pyrimidinyl)propyl]-benzoic acid], the IC50 is listed as 270 µM.
